Data: patent US10294202B2, “Pyrrolidinones as herbicides” (FMC Corporation, priority 2013, dated 2019)

Key:
kochia = assay: Test A pre-/postemergence herbicide test; type: in vivo, Kochia scoparia
In short: (§1)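 Planted in loam–sand blend; treated the same day preemergence by directed soil spray, while separately grown plants at one- to two-leaf stage got postemergence spray. Compared visually with untreated controls after approximately 10 days; 100 means complete control.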

oat, wild = assay: Test C pre-/postemergence herbicide test; type: in vivo, Avena fatua; details: Postemergence
In short: (§2)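 Test compounds, formulated in a surfactant-containing non-phytotoxic solvent blend, are applied to seeded loam/sand soil (preemergence) and to young plants at the 1- to 4-leaf stage in peat-based medium (postemergence). Plants stay 13 to 15 days under greenhouse conditions, then are scored visually relative to controls, 0 = no effect, 100 = complete control.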

ragweed = assay: Test A pre-/postemergence herbicide test; type: in vivo, Ambrosia elatior
In short: as §1

wheat (winter wheat) = assay: Test C pre-/postemergence herbicide test; type: in vivo, Triticum aestivum
In short: as §2

galium = assay: Test A postemergence herbicide test; type: in vivo, Galium aparine
In short: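 Injury was rated visually about 10 days after treatment on a 0 (no effect) to 100 (complete control) scale, compared with untreated plants. Test chemicals were sprayed postemergence onto greenhouse plants 2–10 cm high at one to two leaves, grown in a loam–sand blend.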

ryegrass, Italian = assay: Test C pre-/postemergence herbicide test; type: in vivo, Lolium multiflorum
In short: as §2

[1] = Postemergence, 125 g ai/ha, visual rating on 0 to 100 scale (0 no effect, 100 complete control), approx. 10 days
[2] = Postemergence, 500 g ai/ha, 0 to 100 scale (0 no effect, 100 complete control)
[3] = Preemergence, 500 g ai/ha, visual rating on 0 to 100 scale (0 no effect, 100 complete control)
[4] = 31 g ai/ha, scale 0 to 100 (0 no effect, 100 complete control)
[5] = 62 g ai/ha, scale 0 (no effect) to 100 (complete control)
[6] = 125 g ai/ha, scale 0 to 100 (0 no effect, 100 complete control)
[7] = Preemergence, 125 g ai/ha, 0 to 100 scale where 0 is no effect and 100 is complete control
[8] = Postemergence, 16 g ai/ha, scale 0 to 100 (0 no effect, 100 complete control)
[9] = Postemergence, 31 g ai/ha, scale 0 to 100 (0 no effect, 100 complete control)
[10] = Postemergence, 62 g ai/ha, scale 0 (no effect) to 100 (complete control)
[11] = Postemergence, 125 g ai/ha, scale 0 to 100 (0 no effect, 100 complete control)
[12] = Preemergence, 31 g ai/ha, scale 0 to 100, 0 is no effect and 100 is complete control
[13] = Preemergence, 62 g ai/ha, scale 0 to 100 (0 no effect, 100 complete control)
[14] = Preemergence, 16 g ai/ha, scale 0 to 100
[15] = 125 g ai/ha, visual rating on 0 to 100 scale (0 no effect, 100 complete control), approx. 10 days
[16] = 500 g ai/ha, 0 to 100 scale (0 no effect, 100 complete control)
[17] = Preemergence, 125 g ai/ha, scale 0 to 100 (0 no effect, 100 complete control)
[18] = 250 g ai/ha, scale 0 to 100 (0 no effect, 100 complete control)
[19] = Postemergence, 250 g ai/ha, scale 0 to 100 (0 no effect, 100 complete control)
[20] = Preemergence, 125 g ai/ha, scale 0 to 100
[21] = Postemergence, 125 g ai/ha, 0 to 100 scale, 0 is no effect, 100 is complete control
[22] = preemergence, 500 g ai/ha, 0 to 100 scale, 0 is no effect and 100 is complete control
[23] = 125 g ai/ha, 0 to 100 scale, 0 is no effect, 100 is complete control

Row | SMILES | Plant response rating, Kochia (kochia; [2]) | Plant response rating, Oat, Wild (oat, wild; [4]) | Plant response rating, Oat, Wild (oat, wild; [5]) | Plant response rating, Oat, Wild (oat, wild; [6]) | Plant response rating, Ragweed (ragweed; [1]) | Plant response rating, Ragweed (ragweed; [2]) | Plant response rating, Ragweed (ragweed; [7]) | Plant response rating, Wheat (wheat (winter wheat); [9]) | Plant response rating, Wheat (wheat (winter wheat); [10]) | Plant response rating, Wheat (wheat (winter wheat); [11]) | Wheat plant response rating (wheat (winter wheat); [13]) | Plant response rating, Galium (galium; [16]) | Plant response rating, Ryegrass, Italian (ryegrass, Italian; [9]) | Plant response rating, Ryegrass, Italian (ryegrass, Italian; [10]) | Plant response rating, Ryegrass, Italian (ryegrass, Italian; [11]) | Ryegrass, Italian plant response rating (ryegrass, Italian; [13]) | Plant response rating, Kochia (kochia; [7]) | Plant response rating, Oat, Wild (oat, wild; [18]) | Plant response rating, Wheat (wheat (winter wheat); [19]) | Plant response rating, Ryegrass, Italian (ryegrass, Italian; [19]) | other results
1 | CN1CC(c2ccc(C(F)(F)F)cc2)C(C(=O)Nc2ccccc2F)C1=O (centres unmarked) [Compound 304] | 80 | 0 | 0 | 0 | 0 | 20 | 0 | 0 | 0 | 0 | 50 | 60 | 0 | 5 | 0 | 75 |  |  |  |  | Plant response rating, Kochia (kochia; [1]): 10; Kochia plant response rating (kochia; [3]): 70; Plant response rating, Oat, Wild (oat, wild; 16 g ai/ha, scale 0 to 100 (0 no effect, 100 complete control)): 0; Plant response rating, Wheat (wheat (winter wheat); [8]): 0; Wheat plant response rating (wheat (winter wheat); [12]): 40; Plant response rating, Wheat (wheat (winter wheat); [14]): 5; Plant response rating, Galium (galium; [15]): 20; Plant response rating, Ryegrass, Italian (ryegrass, Italian; [8]): 0; Ryegrass, Italian plant response rating (ryegrass, Italian; [12]): 30; Plant response rating, Ryegrass, Italian (ryegrass, Italian; [17]): 40; Plant response rating, Ryegrass, Italian (ryegrass, Italian; [14]): 10
2 | O=C1NCC(c2cccc(C(F)(F)F)c2)C1C(=O)Nc1cccc(Cl)c1F (centres unmarked) [Compound 316] | 40 | 0 | 0 | 5 | 20 | 30 | 20 | 0 | 0 | 0 | 5 | 40 | 0 | 0 | 0 | 0 | 0 | 30 | 0 | 5 | Plant response rating, Kochia (kochia; [1]): 30; Kochia plant response rating (kochia; [3]): 30; Ragweed plant response rating (ragweed; [3]): 30; Plant response rating, Wheat (wheat (winter wheat); [20]): 40; Plant response rating, Galium (galium; [15]): 20; Plant response rating, Ryegrass, Italian (ryegrass, Italian; [20]): 10
3 | O=C1NCC(c2cc(F)cc(F)c2)C1C(=O)Nc1cccc(F)c1F (racemic) [Compound 279] | 40 | 0 | 0 | 0 | 0 | 0 | 0 | 0 | 0 | 0 | 15 | 50 | 0 | 0 | 0 | 10 | 40 | 0 | 0 | 0 | Plant response rating, Kochia (kochia; [21]): 0; Plant response rating, Kochia (kochia; [22]): 80; Plant response rating, Ragweed (ragweed; [22]): 0; Wheat plant response rating (wheat (winter wheat); [12]): 0; Plant response rating (scale of 0 to 100), Wheat (wheat (winter wheat); Preemergence, 250 g ai/ha): 30; Plant response rating, Galium (galium; [23]): 40; Ryegrass, Italian plant response rating (ryegrass, Italian; [12]): 0; Plant response rating, Ryegrass, Italian (ryegrass, Italian; [17]): 30; Plant response rating (scale of 0 to 100), Ryegrass, Italian (ryegrass, Italian; Preemergence, 250 g ai/ha): 60
4 | O=C1NCC(c2cc(F)cc(F)c2)C1C(=O)Nc1ccc(F)cc1F (racemic) [Compound 278] | 0 | 0 | 0 | 0 | 0 | 0 | 0 | 0 | 0 | 0 | 0 | 50 | 0 | 0 | 0 | 0 | 0 | 0 | 0 | 0 | Plant response rating, Kochia (kochia; [21]): 0; Plant response rating, Kochia (kochia; [22]): 0; Plant response rating, Ragweed (ragweed; [22]): 0; Wheat plant response rating (wheat (winter wheat); [12]): 0; Plant response rating (scale of 0 to 100), Wheat (wheat (winter wheat); Preemergence, 250 g ai/ha): 0; Plant response rating, Galium (galium; [23]): 40; Ryegrass, Italian plant response rating (ryegrass, Italian; [12]): 0; Plant response rating, Ryegrass, Italian (ryegrass, Italian; [17]): 0; Plant response rating (scale of 0 to 100), Ryegrass, Italian (ryegrass, Italian; Preemergence, 250 g ai/ha): 0
5 | O=C1NCC(c2cccc(Br)c2)C1C(=O)Nc1cccc(F)c1F (centres unmarked) [Compound 309] | 0 | 0 | 0 | 0 | 0 | 0 | 0 | 0 | 0 | 0 | 0 | 70 | 0 | 0 | 0 | 0 | 0 | 0 | 0 | 5 | Plant response rating, Kochia (kochia; [1]): 0; Kochia plant response rating (kochia; [3]): 0; Plant response rating, Wheat (wheat (winter wheat); [20]): 0; Plant response rating (scale of 0 to 100), Wheat (wheat (winter wheat); Preemergence, 250 g ai/ha): 0; Plant response rating, Galium (galium; [15]): 60; Plant response rating, Ryegrass, Italian (ryegrass, Italian; [20]): 0; Plant response rating (scale of 0 to 100), Ryegrass, Italian (ryegrass, Italian; Preemergence, 250 g ai/ha): 10
6 | CN1CC(c2ccc(F)c(F)c2)C(C(=O)Nc2ccccc2F)C1=O (centres unmarked) [Compound 302] | 60 | 0 | 0 | 0 | 0 | 0 | 0 | 0 | 0 | 0 | 5 | 60 | 0 | 0 | 0 | 0 | 50 | 0 | 0 | 0 | Plant response rating, Kochia (kochia; [1]): 10; Kochia plant response rating (kochia; [3]): 70; Ragweed plant response rating (ragweed; [3]): 30; Wheat plant response rating (wheat (winter wheat); [12]): 0; Plant response rating (scale of 0 to 100), Wheat (wheat (winter wheat); Preemergence, 250 g ai/ha): 30; Plant response rating, Galium (galium; [15]): 60; Ryegrass, Italian plant response rating (ryegrass, Italian; [12]): 0; Plant response rating, Ryegrass, Italian (ryegrass, Italian; [17]): 5; Plant response rating (scale of 0 to 100), Ryegrass, Italian (ryegrass, Italian; Preemergence, 250 g ai/ha): 40
